# Read-outs that look alike come from different tables or passages of the source.
# Details: amide bond, 24-membered ring
# [1] = 2-chloro-1-methylpyridinium iodide/TEA, DCM, 4.2 mM, 25.0 °C
substance,measurement,setting,value
"H-MeLeu-dLac-MeLeu-dLac-MeLeu-[3-oxy-2-oxopiperidin-1-yl (delta-lactam, replaces Lac + N-Me)]Leu-dPhLac-OH?","ring closure, isolated yield","the molecule shown is the open-chain precursor, BOP-Cl/DIEA, CH2Cl2, 0.98 mM",48%
"H-MeLeu-dLac-MeLeu-dPhLac-MeLeu-[3-oxy-2-oxopiperidin-1-yl (delta-lactam, replaces Lac + N-Me)]Leu-dPhLac-OH?","ring closure, isolated yield","the molecule shown is the open-chain precursor, BOP-Cl/DIEA, CH2Cl2, 0.99 mM",65%
cvlo(D-2-hydroxypropanoyl-L-pipecolyl-D-2-hydroxypropanoyl-N-methyl-L-leucyl-D-2-hydroxypropanoyl-N-methyl-L-leucyl-D-2-hydroxypropanoyl-N-methyl-L-leucyl),"ring closure, isolated yield","2-chloro-1-methylpyridinium iodide/TEA, DCM, 4.75 mM, 25.0 °C",34%
cyclo(D-2-hydroxy-3-phenylpropanoyl-L-pipecolyl-D-2-hydroxypropanoyl-N-methyl-L-leucyl-D-2-hydroxy-3-phenylpropanoyl-N-methyl-L-leucyl-D-2-hydroxypropanoyl-N-methyl-L-leucyl),"ring closure, isolated yield",[1],50%
cyclo(D-2-hydroxy-3-phenylpropanoyl-L-prolyl-D-2-hydroxypropanoyl-N-methyl-L-leucyl-D-2-hydroxy-3-phenylpropanoyl-N-methyl-L-leucyl-D-2-hydroxypropanoyl-N-methyl-L-leucyl),"ring closure, isolated yield","2-chloro-1-methylpyridinium iodide/TEA, DCM, 5.9 mM, 25.0 °C",12%
cyclo(D-2-hydroxypropanoyl-L-N-δ-tetrahydroquinoline-3-carboxyl-D-2- hydroxy-3-phenylpropanoyl-N-methyl-L-leucyl-D-2-hydroxypropanoyl-N-methyl-L-leucyl-D-2-hydroxy-3-phenylpropanoyl-N-methyl-L-leucyl),"ring closure, isolated yield",[1],42%
cylo(D-2-hydroxypropanoyl-L-N-α-tetrahydroquinoline-3-carboxyl-D-2-hydroxypropanoyl-N-methyl-L-leucyl-D-2-hydroxypropanoyl-N-methyl-L-leucyl-D- 2-hydroxypropanoyl-N-methyl-L-leucyl),"ring closure, isolated yield","2-chloro-1-methylpyridinium iodide/TEA, DCM, 6.0 mM, 25.0 °C",50%

# From patent US5776950
